Source: the supplement of paper PMC10307832

Assays:
Assay in all cases: relative viability (nuclei count vs DMSO), 5 days (fraction); higher = more cells survive
GSK-J4 + AZD7762 = compound: CCOC(=O)CCNc1cc(N2CCc3ccccc3CC2)nc(-c2ccccn2)n1 [GSK-J4] + NC(=O)Nc1cc(-c2cccc(F)c2)sc1C(=O)N[C@H]1CCCNC1 [AZD7762] (partner 0.2 µM)
Outline: (§1)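 Lung cancer cell lines, seeded in 1536-well plates, were treated the following day by pin tool with a single drug or with five library-drug doses (not always all listed) in √10 steps on top of a fixed anchor-drug dose. Cells were fixed and nuclei stained in one step after 5 days, and nuclei were counted. Relative viability is the nuclei count for treated wells divided by that for vehicle wells, reported as medians of duplicate plates.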

GSK-J4 + Tozasertib = compound: CCOC(=O)CCNc1cc(N2CCc3ccccc3CC2)nc(-c2ccccn2)n1 [GSK-J4] + Cc1cc(Nc2cc(N3CCN(C)CC3)nc(Sc3ccc(NC(=O)C4CC4)cc3)n2)n[nH]1 [Tozasertib] (partner 0.1 µM)
Outline: as §1

GSK-J4 + Pemetrexed = compound: CCOC(=O)CCNc1cc(N2CCc3ccccc3CC2)nc(-c2ccccn2)n1 [GSK-J4] + Nc1nc2[nH]cc(CCc3ccc(C(=O)N[C@@H](CCC(=O)O)C(=O)O)cc3)c2c(=O)[nH]1 [Pemetrexed] (partner 0.2 µM)
Outline: as §1

AZ3146 + Phenformin = compound: CN1CCC(CC1)OC2=CC(=C(C=C2)NC3=NC=C4C(=N3)N(C(=O)N4C)C5CCCC5)OC [AZ3146] + N=C(N)NC(=N)NCCc1ccccc1 [Phenformin] (partner 250 µM)
Outline: as §1

| Cell Line | relative viability (GSK-J4 + AZD7762; first compound 0.5 µM) | relative viability (GSK-J4 + AZD7762; first compound 1.581 µM) | relative viability (GSK-J4 + AZD7762; first compound 5 µM) | relative viability (GSK-J4 + AZD7762; first compound 15.81 µM) | relative viability (GSK-J4 + AZD7762; first compound 50 µM) | relative viability (GSK-J4 + Tozasertib; first compound 0.5 µM) | relative viability (GSK-J4 + Tozasertib; first compound 1.581 µM) | relative viability (GSK-J4 + Tozasertib; first compound 5 µM) | relative viability (GSK-J4 + Tozasertib; first compound 15.81 µM) | relative viability (GSK-J4 + Tozasertib; first compound 50 µM) | relative viability (GSK-J4 + Pemetrexed; first compound 0.5 µM) | relative viability (GSK-J4 + Pemetrexed; first compound 1.581 µM) | relative viability (GSK-J4 + Pemetrexed; first compound 5 µM) | relative viability (GSK-J4 + Pemetrexed; first compound 15.81 µM) | relative viability (GSK-J4 + Pemetrexed; first compound 50 µM) | relative viability (AZ3146 + Phenformin; first compound 0.08 µM) | relative viability (AZ3146 + Phenformin; first compound 0.253 µM) | relative viability (AZ3146 + Phenformin; first compound 0.8 µM) | relative viability (AZ3146 + Phenformin; first compound 2.53 µM) | relative viability (AZ3146 + Phenformin; first compound 8 µM) |
| --- | --- | --- | --- | --- | --- | --- | --- | --- | --- | --- | --- | --- | --- | --- | --- | --- | --- | --- | --- | --- |
| HOP-62 | 0.555 | 0.573 | 0.45 | 0.592 | 0.451 | 0.344 | 0.335 | 0.358 | 0.339 | 0.24 | 0.316 | 0.3 | 0.324 | 0.329 | 0.364 | 0.567 | 0.697 | 0.604 | 0.647 | 0.523 |
| LC-2-ad | 0.845 | 0.756 | 0.634 | 0.785 | 0.81 | 0.429 | 0.377 | 0.41 | 0.399 | 0.36 | 0.288 | 0.281 | 0.247 | 0.267 | 0.272 | 0.54 | 0.557 | 0.614 | 0.628 | 0.609 |
| LCLC-97TM1 | 0.197 | 0.23 | 0.384 | 0.209 | 0.337 | 0.322 | 0.187 | 0.226 | 0.146 | 0.165 | 0.15 | 0.153 | 0.198 | 0.148 | 0.181 | 0.386 | 0.411 | 0.326 | 0.433 | 0.448 |
| LCLC-103H | 0.811 | 0.76 | 0.525 | 0.69 | 0.65 | 0.515 | 0.434 | 0.526 | 0.444 | 0.332 | 0.483 | 0.374 | 0.378 | 0.42 | 0.509 | 0.317 | 0.32 | 0.348 | 0.363 | 0.38 |
| LK-2 | 0.53 | 0.29 | 0.663 | 0.168 | 0.19 | 0.165 | – | 0.167 | 0.164 | 0.147 | 0.281 | 0.239 | 0.329 | 0.226 | 0.172 | 0.397 | 0.392 | 0.292 | 0.409 | 0.295 |
| LOU-NH91 | 0.773 | 0.734 | 0.561 | 0.703 | 0.74 | 0.654 | 0.502 | 0.438 | 0.619 | 0.644 | 0.39 | 0.381 | 0.36 | 0.346 | 0.441 | 0.736 | 0.565 | 0.768 | 0.761 | 0.76 |
| NCI-H520 | – | – | – | – | – | 0.439 | – | 0.497 | 0.39 | 0.425 | 0.632 | 0.5 | 0.655 | 0.57 | 0.547 | 0.385 | 0.497 | 0.323 | 0.637 | 0.375 |
| NCI-H661 | – | – | – | – | – | 0.355 | 0.3 | 0.357 | 0.335 | 0.413 | 0.908 | 0.827 | 0.883 | 0.883 | 0.788 | 0.285 | 0.25 | 0.265 | 0.274 | 0.29 |
| NCI-H727 | 0.425 | 0.54 | 0.728 | 0.585 | 0.341 | 0.714 | 0.541 | 0.621 | 0.585 | 0.463 | – | – | – | – | – | 0.456 | 0.545 | 0.341 | 0.61 | 0.417 |
